Source: patent US20100113612A1, “NOVEL USE OF HYDROXYTYROSOL AND OLIVE EXTRACTS/CONCENTRATE CONTAINING IT” (priority 2007, published 2010)

Tested on: Drosophila melanogaster (Oregon wild strain)
Experiment: Life extending experiments with Drosophila (lifespan study)
Assay type: in vivo
Settings: for Mean Lifespan: from age of 15 days on
Protocol: Drosophila melanogaster (Oregon wild strain) were used for lifespan study. Flies were reared in a light/dark cycle of 12:12 hours at a temperature of 25° C. and 65% relative humidity. Drosophila were fed with a standard medium consisting of 170 g of corn flour, 15 g of agar, 15 g of yeast, 10 ml of 100% propionic acid, 130 g of sucrose, and 2000 ml of water.
One-day-old Drosophila were transferred to plastic vials (25×100 mm) containing 2 ml of the diet medium, which was replaced every 3 days. 10 flies from each gender were kept in one vial. Hydroxytyrosol was provided in the diet to Drosophila from age of 15 days on. The Drosophilae were counted every 3 days until all flies died. Survivals were calculated at the end of the experiments after correcting total loss incurred from handling (Phillips J P, Campbell S D, Michaud D, Charbonneau M, Hilliker A J, Proc Natl Acad Sci USA. 1989, 86(8), 2761-2765: “Null mutation of copper/zinc superoxide dismutase in Drosophila confers hypersensitivity to paraquat and reduced longevity.”). The mean lifespan was calculated according to the method described by Cui X, Dai X G, Li W B, Zhang B L, Fang Y Z in Am. J. Chin. Med. 1999, 27(3-4), 407-413: “Effects of lu-duo-wei capsule on prolonging life span of housefly and Drosophila melanogaster.”

Structure (SMILES): OCCc1ccc(O)c(O)c1 [Hydroxytyrosol, 3,4-dihydroxyphenylethanol]
- % Increase of lifespan compared to control (1 mg/100 g in the diet): 8.23%
- Mean Lifespan (1 mg/100 g in the diet): 75.14 days
- % Increase of lifespan compared to control (5 mg/100 g in the diet): 11.55%
- Mean Lifespan (5 mg/100 g in the diet): 77.44 days
- % Increase of lifespan compared to control (10 mg/100 g in the diet): 3.89%
- Mean Lifespan (10 mg/100 g in the diet): 72.12 days
- % Increase of lifespan compared to control (20 mg/100 g in the diet): 6.97%
- Mean Lifespan (20 mg/100 g in the diet): 74.26 days
- % Increase of lifespan compared to control (50 mg/100 g in the diet): 4.02%
- Mean Lifespan (50 mg/100 g in the diet): 72.21 days
- lifespan extension (best effect) (male Drosophila, 5 mg/100 g diet): 11.5%
